Columns and labels:
Experiment in all cases: selective drug sensitivity score (sDSS, relative to normal bone marrow) (sDSS (score)); higher = more potent and effective on the cell line relative to normal bone marrow cells
Conditions in all cases: 72 h
[1] = test system: 380
[2] = test system: 697
[3] = test system: ALL-PO
[4] = test system: COG-LL-317
[5] = test system: COG-LL-332h
[6] = test system: DND-41
[7] = test system: HAL-01
[8] = test system: HPB-ALL
[9] = test system: JURKAT
[10] = test system: KASUMI-10
[11] = test system: KASUMI-2
[12] = test system: MHH-CALL-3
[13] = test system: MHH-CALL-4
[14] = test system: MN-60
[15] = test system: MOLT-14
[16] = test system: MOLT-4
[17] = test system: NALM-6
[18] = test system: P30-OHKUBO
[19] = test system: SUP-B15
[20] = test system: TANOUE
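Also: ALL cell lines in 384-well plates, five doses spanning 10,000-fold, each plate scaled between vehicle and 100 µmol/L benzalkonium chloride controls, sDSS an adapted area-under-curve metric.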

| SMILES | selective drug sensitivity score [1] | selective drug sensitivity score [2] | selective drug sensitivity score [3] | selective drug sensitivity score [4] | selective drug sensitivity score [5] | selective drug sensitivity score [6] | selective drug sensitivity score [7] | selective drug sensitivity score [8] | selective drug sensitivity score [9] | selective drug sensitivity score [10] | selective drug sensitivity score [11] | selective drug sensitivity score [12] | selective drug sensitivity score [13] | selective drug sensitivity score [14] | selective drug sensitivity score [15] | selective drug sensitivity score [16] | selective drug sensitivity score [17] | selective drug sensitivity score [18] | selective drug sensitivity score [19] | selective drug sensitivity score [20] |
| --- | --- | --- | --- | --- | --- | --- | --- | --- | --- | --- | --- | --- | --- | --- | --- | --- | --- | --- | --- | --- |
| Cc1ccc(=O)n(-c2ccccc2)c1 [Pirfenidone] (top concentration 10000 nM) | 0 | 0 | 0 | 0 | 0 | 0 | 0 | 0 | 0 | 0 | 0 | 0 | 0 | 0 | 0 | 0 | 0 | 0 | 0 | 0 |
| Nc1nc(Cl)nc2c1ncn2[C@H]1C[C@H](O)[C@@H](CO)O1 [Cladribine] (top concentration 1000 nM) | 7.56 | 10.5 | 8.66 | 1.06 | 3.26 | 1.16 | -0.14 | -9.34 | -10.7 | 5.26 | 6.76 | 11.7 | 4.06 | -6.44 | 5.66 | -7.74 | 0.46 | 8.06 | 9.36 | -16 |
| Cc1cc(Nc2cc(N3CCN(C)CC3)nc(Sc3ccc(NC(=O)C4CC4)cc3)n2)n[nH]1 [Tozasertib] (top concentration 10000 nM) | 19.2 | 23.2 | 17.3 | 21.6 | 19.9 | 0.36 | 8.36 | 7.46 | 1.76 | 15.6 | 12.3 | 9.66 | 4.66 | -0.74 | 20.9 | 15.6 | 16.2 | 22.2 | 19.1 | -6.64 |

From the supplement of paper PMC8967900
